Reference: patent US8802678B2, “Carbonylated (aza) cyclohexanes as dopamine D3 receptor ligands” (Bioprojet, priority 2006, dated 2014)

| SMILES | melting point |
| --- | --- |
| CC(=O)CN1CCC(CCN2CCN(c3cc(F)cc(Cl)c3)CC2)CC1 [Example 581, 1-(4-{2-[4-(3-Chloro-5-fluorophenyl)piperazin-1-yl]ethyl}piperidin-1-yl)propan-2-one] | 107 °C |
| N#CCCCC(=O)N[C@H]1CC[C@H](CCN2CCN(c3ccc(F)c(Cl)c3)CC2)CC1 [Example 598, N-(4-{2-[4-(3-Chloro-4-fluorophenyl)piperazin-1-yl]ethyl}cyclohexyl)-4-cyanobutanamide] | 142 °C |
| O=C(CC(F)(F)F)N[C@H]1CC[C@H](CCN2CCN(c3cccc(F)c3F)CC2)CC1 [Example 446, N-(4-{2-[4-(2,3-Difluorophenyl)piperazin-1-yl]ethyl}cyclohexyl)-3,3,3-trifluoropropanamide] | 220 °C |
| CC(=O)CN1CCC(CCN2CCN(c3cccc(Cl)c3F)CC2)CC1.Cl.Cl | 270 °C |
| N#CCCCC(=O)N[C@H]1CC[C@H](CCN2CCN(c3ccc(Cl)cc3)CC2)CC1 [Example 479, N-(4-{2-[4-(4-Chlorophenyl)piperazin-1-yl]ethyl}cyclohexyl)-4-cyanobutanamide] | 190 °C |
| N#CCCCC(=O)N[C@H]1CC[C@H](CCN2CCc3cc(C#N)ccc3C2)CC1 [Example 558, 4-Cyano-N-{4-[2-(6-cyano-3,4-dihydro-1H-isoquinolin-2-yl)ethyl]cyclohexyl}butanamide] | 177 °C |
| COCC(=O)N[C@H]1CC[C@H](CCN2CCN(c3ccc(Cl)c(Cl)c3F)CC2)CC1 [Example 719, N-(4-{2-[4-(3,4-Dichloro-2-fluorophenyl)piperazin-1-yl]ethyl}cyclohexyl)-2-methoxyacetamide] | 172 °C |
| CC(=O)CN1CCC(CCN2CCN(c3ccc(C)c(Cl)c3)CC2)CC1 [Example 618, 1-(4-{2-[4-(3-Chloro-4-methylphenyl)piperazin-1-yl]ethyl}piperidin-1-yl)propan-2-one] | 103 °C |
| Cc1cccc(N2CCN(CC[C@H]3CC[C@H](NC(=O)CC(F)(F)F)CC3)CC2)c1 [Example 235, 3,3,3-Trifluoro-N-{4-[2-(4-m-tolylpiperazin-1-yl)ethyl]cyclohexyl}propanamide] | 170 °C |
| CCOCC(=O)N[C@H]1CC[C@H](CCN2CCN(c3ccccc3OC)CC2)CC1 [Example 123, 2-Ethoxy-N-(4-{2-[4-(2-methoxyphenyl)piperazin-1-yl]ethyl}cyclohexyl)acetamide] | 210 to 214 °C |
| COc1cccc(N2CCN(CC[C@H]3CC[C@H](NC(=O)CCC#N)CC3)CC2)c1 [Example 418, 3-Cyano-N-(4-{2-[4-(3-methoxyphenyl)piperazin-1-yl]ethyl}cyclohexyl)propanamide] | 140 °C |
| CCOCC(=O)N1CCC(CCN2CCN(c3cccc(C(F)(F)F)c3)CC2)CC1.Cl | 145 °C |
| Cc1ccc(N2CCN(CC[C@H]3CC[C@H](NC(=O)CCCC#N)CC3)CC2)cc1C [Example 505, 4-Cyano-N-(4-{2-[4-(3,4-dimethylphenyl)piperazin-1-yl]ethyl}cyclohexyl)butanamide] | 172 °C |
| COCCCC(=O)N[C@H]1CC[C@H](CCN2CCN(c3cccc(C(F)(F)F)c3F)CC2)CC1 [Example 470, N-(4-{2-[4-(2-Fluoro-3-trifluoromethylphenyl)piperazin-1-yl]ethyl}cyclohexyl)-4-methoxybutanamide] | 175 °C |
| COc1ccc(OC)c(N2CCN(CC[C@H]3CC[C@H](NC(=O)CC#N)CC3)CC2)c1 [Example 221, 2-Cyano-N-(4-{2-[4-(2,5-dimethoxyphenyl)piperazin-1-yl]ethyl}cyclohexyl)acetamide] | 171 to 173 °C |
| CC(=O)CC1CCC(CCN2CCN(c3cccc(C(F)(F)F)c3)CC2)CC1.Cl (stereo not shown) | 160 °C |
| C[S+]([O-])CC(=O)N[C@H]1CC[C@H](CCN2CCN(c3cccc(C(F)(F)F)c3)CC2)CC1 (stereo partly shown) [Example 334, 2-Methanesulfinyl-N-(4-{2-[4-(3-trifluoromethylphenyl)piperazin-1-yl]ethyl}cyclohexyl)acetamide] | 153 °C |
| CC(=O)C(=O)N1CCC(CCN2CCN(c3cccc(Cl)c3Cl)CC2)CC1.Cl | 244 °C |
| O=C(N[C@H]1CC[C@H](CCN2CCN(c3cccc(C(F)(F)F)c3)CC2)CC1)C1CCCO1 (stereo partly shown) [Example 40, Tetrahydrofuran-2-carboxylic acid (4-{2-[4-(3-trifluoromethylphenyl)piperazin-1-yl]ethyl}cyclohexyl)amide] | 135 °C |
| CCOCC(=O)N[C@H]1CC[C@H](CCN2CCN(c3cc(C#N)cc(C(F)(F)F)c3)CC2)CC1 [Example 140, N-(4-{2-[4-(3-Cyano-5-trifluoromethylphenyl)piperazin-1-yl]ethyl}cyclohexyl)-2-ethoxyacetamide] | 133 °C |
| N#CCCCC(=O)NC1CCC(CCN2CCN(c3cccc(-c4ccccc4)c3)CC2)CC1 (stereo not shown) [Example 462, N-{4-[2-(4-Biphenyl-3-ylpiperazin-1-yl)ethyl]cyclohexyl}-4-cyanobutanamide] | 119 °C |
| CC(=O)CN1CCC(CCN2CCN(c3ccc(F)c(C#N)c3Cl)CC2)CC1.Cl.Cl | 291 °C |

| SMILES | melting point |
| --- | --- |
| N#CCC(=O)N[C@H]1CC[C@H](CCN2CCN(c3cccc4c3CCC4)CC2)CC1 [Example 456, 2-Cyano-N-{4-[2-(4-indan-4-ylpiperazin-1-yl)ethyl]cyclohexyl}acetamide] | 175 °C |
| CC(=O)CN1CCC(CCN2CCN(c3cc(Cl)ccc3Cl)CC2)CC1.Cl.Cl | 172 °C |
| COc1ccc(N2CCN(CC[C@H]3CC[C@H](NC(=O)CCCC#N)CC3)CC2)cc1 [Example 582, 4-Cyano-N-(4-{2-[4-(4-methoxyphenyl)piperazin-1-yl]ethyl}cyclohexyl)butanamide] | 200 °C |
| COc1cc(OC)cc(N2CCN(CC[C@H]3CC[C@H](NC(=O)CC#N)CC3)CC2)c1 [Example 180, 2-Cyano-N-(4-{2-[4-(3,5-dimethoxyphenyl)piperazin-1-yl]ethyl}cyclohexyl)acetamide] | 181 to 183 °C |
| N#CCCCC(=O)N[C@H]1CC[C@H](CCN2CCN(c3ccc(F)c(Cl)c3F)CC2)CC1 [Example 552, N-(4-{2-[4-(3-Chloro-2,4-difluorophenyl)piperazin-1-yl]ethyl}cyclohexyl)-4-cyanobutanamide] | 192 °C |
| N#CCCCC(=O)N[C@H]1CC[C@H](CCN2CCN(c3cc(F)cc(F)c3)CC2)CC1 [Example 254, 4-Cyano-N-(4-{2-[4-(3,5-difluorophenyl)piperazin-1-yl]ethyl}cyclohexyl)butanamide] | 165 °C |
| COCCCC(=O)N[C@H]1CC[C@H](CCN2CCN(c3cc(F)c(F)c(F)c3F)CC2)CC1 [Example 93, 4-Methoxy-N-(4-{2-[4-(2,3,4,5-tetrafluorophenyl)piperazin-1-yl]ethyl}cyclohexyl)butyramide] | 201 °C |
| O=C(N[C@H]1CC[C@H](CCN2CCN(c3cc(F)c(F)c(F)c3)CC2)CC1)C1=CCCC1 [Example 463, Cyclopent-1-enecarboxylic acid (4-{2-[4-(3,4,5-trifluorophenyl)piperazin-1-yl]ethyl}cyclohexyl) amide] | 208 °C |
| CCOc1cccc(N2CCN(CCC3CCN(CC(C)=O)CC3)CC2)c1.Cl.Cl | 246 °C |
| O=C(C[C@H]1CC[C@H](CCN2CCN(c3ccccc3F)CC2)CC1)N1CCCC1 [Example 302, 2-(4-{2-[4-(2-Fluorophenyl)-piperazin-1-yl]ethyl}cyclohexyl)-1-pyrrolidin-1-ylethanone] | 92 to 93 °C |
| CC(=O)CN1CCC(CCN2CCN(c3ccc(C(F)(F)F)cc3)CC2)CC1 [Example 587, 1-(4-{2-[4-(4-Trifluoromethylphenyl)piperazin-1-yl]ethyl}pipericin-1-yl)propan-2-one] | 104 °C |
| N#CCC(=O)N[C@H]1CC[C@H](CCN2CCN(c3cc(Cl)cc(Cl)c3)CC2)CC1 [Example 151, 2-Cyano-N-(4-{2-[4-(3,5-dichlorophenyl)piperazin-1-yl]ethyl}cyclohexyl)acetamide] | 200 °C |
| O=C(N[C@H]1CC[C@H](CCN2CCN(c3ccc(Cl)c(Cl)c3)CC2)CC1)C1=CCCC1 [Example 486, Cyclopent-1-enecarboxylic acid (4-{2-[4-(3,4-dichlorophenyl)piperazin-1-yl]ethyl}cyclohexyl) amide] | 202 °C |
| CO[C@H](C)C(=O)N[C@H]1CC[C@H](CCN2CCN(c3ccccc3F)CC2)CC1 (stereo in doubt) [Example 75, N-(4-{2-[4-(2-Fluorophenyl)-piperazin-1-yl]ethyl}cyclohexyl)-2-methoxypropanamide] | 162 °C |
| CCOCC(=O)N[C@H]1CC[C@H](CCN2CCN(c3cc(C(F)(F)F)ccc3F)CC2)CC1 [Example 514, 2-Ethoxy-N-(4-{2-[4-(2-fluoro-5-trifluoromethylphenyl)piperazin-1-yl]ethyl}cyclohexyl)acetamide] | 128 °C |
| Cl.N#CCC(=O)N1CCC(CCN2CCN(c3cccc(Cl)c3Cl)CC2)CC1 | 228 °C |
| N#CCC(=O)N[C@H]1CC[C@H](CCN2CCN(c3ccccc3C#N)CC2)CC1 [Example 376, 2-Cyano-N-(4-{2-[4-(2-cyanophenyl)piperazin-1-yl]ethyl}cyclohexyl)acetamide] | 190 °C |
| N#CCC(=O)N[C@H]1CC[C@H](CCN2CCN(c3cccc(F)c3C#N)CC2)CC1 [Example 208] | 187 to 189 °C |
| O=C(N[C@H]1CC[C@H](CCN2CCN(c3cc(F)c(F)c(F)c3)CC2)CC1)C1CC=CC1 [Example 466, Cyclopent-3-enecarboxylic acid (4-{2-[4-(3,4,5-trifluorophenyl)piperazin-1-yl]ethyl}cyclohexyl) amide] | 224 °C |
| COCC(=O)N[C@H]1CC[C@H](CCN2CCN(c3ccccc3OC)CC2)CC1 [Example 125, 2-Methoxy-N-(4-{2-[4-(2-methoxyphenyl)piperazin-1-yl]ethyl}cyclohexyl)acetamide] | 125 to 126 °C |
| CNC(=O)CC1CCC(CCN2CCN(c3cccc(C(F)(F)F)c3)CC2)CC1 (mixture of isomers) [Example 295, N-Methyl-2-(4-{2-[4-(3-trifluoromethylphenyl)piperazin-1-yl]ethyl}cyclohexyl)acetamide cis/trans 50/50] | 196 °C |
